Assay [1] has as its system Mycobacterium tuberculosis. As to the kind of experiment: Antimycobacterial activity against Mycobacterium tuberculosis H37Rv harboring rv3405c mutant TRC4 after overnight incubation by REMA method. The class given is functional.
Assay [2] concerns Mycobacterium tuberculosis. As to the kind of experiment: Antimycobacterial activity against Mycobacterium tuberculosis H37Rv harboring deltarv3406 dprE1 L368P after overnight incubation by REMA method. The class given is functional.

In brackets after ≈: the same amount, converted by molar mass.

The record followed here is ChEMBL document CHEMBL4371005, “Overview of the Development of DprE1 Inhibitors for Combating the Menace of Tuberculosis” (J Med Chem, 2018).

For `O=C(O)c1nc2ccc(C(F)(F)F)cc2nc1NCc1ccc(Cl)cc1`, the MIC99 – broadly, an inhibitory concentration at the 99% level, which refers to growth in some studies and to a panel of isolates in others – in assay [1] was found to be 12.5 µM (≈ 4.77 µg/mL); in assay [2], 25 µM (≈ 9.54 µg/mL).
The like results for `N#Cc1ccc(CNc2nc3cc(C(F)(F)F)ccc3nc2C(=O)O)cc1` were, in that order, 50 µM (≈ 18.6 µg/mL) and 100 µM (≈ 37.2 µg/mL).
The like results for `O=C(O)c1nc2ccc(C(F)(F)F)cc2nc1NCc1ccc(F)cc1` were, in that order, 25 µM (≈ 9.13 µg/mL) and 25 µM (≈ 9.13 µg/mL).
Take `CCOC(=O)c1nc2ccc(C(F)(F)F)cc2nc1NCc1ccc(OC)cc1`: the MIC99 in assay [1] was 6.3 µM (≈ 2.55 µg/mL); in assay [2] it was 12.5 to 25 µM.
In the same order, the values of `O=C(O)c1nc2ccc(C(F)(F)F)cc2nc1NCc1ccc(C(F)(F)F)cc1` are 12.5 µM (≈ 5.19 µg/mL) and 25 µM (≈ 10.4 µg/mL).
In the same order, the values of `CCOc1ccc(CNc2nc3cc(C(F)(F)F)ccc3nc2C(=O)O)cc1` are 6.3 µM (≈ 2.47 µg/mL) and 12.5 µM (≈ 4.89 µg/mL).
As for `COc1ccc(CNc2nc3cc(C(F)(F)F)ccc3nc2C(=O)O)cc1`, the figures for the MIC99 in assay [1] and in assay [2] were 6.3 µM (≈ 2.38 µg/mL) and 12.5 µM (≈ 4.72 µg/mL), respectively.
For the compound `COc1ccc(CNc2nc3cc(C(F)(F)F)ccc3nc2C(=O)O)cc1F`, the results for the MIC99 in assay [1] and in assay [2] were 12.5 µM (≈ 4.94 µg/mL) and 25 µM (≈ 9.88 µg/mL), respectively.
